Laboratory results published in article PMC9550643 (iScience, 2022).
Read-outs that look alike come from different tables or passages of the source.

Assays:
[1] = tested on: estrogen receptor; conditions: ref Kolle et al., 2010; cited from earlier work
[2] = target: T1, estrogen receptor-α (ERα) (Homo sapiens, UniProt P03372); format: cell-based; conditions: iER-GFP cells, 2 h; mixtures as dilution series, chemicals 1 nM to 100 μM
T1 sequence (P03372 1-595): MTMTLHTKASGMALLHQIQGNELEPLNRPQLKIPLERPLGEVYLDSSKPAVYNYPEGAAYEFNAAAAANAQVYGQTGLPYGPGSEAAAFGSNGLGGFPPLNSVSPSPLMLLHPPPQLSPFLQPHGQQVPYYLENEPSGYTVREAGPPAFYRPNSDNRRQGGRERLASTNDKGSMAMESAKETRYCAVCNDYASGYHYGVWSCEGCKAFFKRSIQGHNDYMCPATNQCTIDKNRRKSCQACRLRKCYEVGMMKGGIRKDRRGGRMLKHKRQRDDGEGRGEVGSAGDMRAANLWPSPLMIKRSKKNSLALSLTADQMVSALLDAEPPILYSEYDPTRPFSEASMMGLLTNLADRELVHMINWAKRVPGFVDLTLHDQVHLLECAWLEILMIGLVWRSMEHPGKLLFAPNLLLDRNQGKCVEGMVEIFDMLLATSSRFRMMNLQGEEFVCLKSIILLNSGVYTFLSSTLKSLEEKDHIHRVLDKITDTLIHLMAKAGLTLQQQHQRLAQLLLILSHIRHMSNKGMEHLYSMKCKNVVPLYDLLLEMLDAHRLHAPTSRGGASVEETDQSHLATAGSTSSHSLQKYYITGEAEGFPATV

[3] = tested on: dsRed2skl mRNA; format: cell-based, Human; conditions: 2 h
[4] = tested on: SRC-1, SRC-3, and phosphorylated RNA Pol II (serine 5); assay: Immunofluorescence of co-activator and RNA Pol II recruitment to the PRL-array; format: cell-based, Human; conditions: GFP-ER and iER-GFP cells, 10 nM, 2 h

## C[C@]12C[C@H](O)[C@H]3[C@@H](CCC4=CC(=O)CC[C@@]43C)[C@@H]1CC[C@@H]2C(=O)CO [Corticosterone]
[1]
  activity in yeast-based estrogenic assays: (anti-)estrogenic activity

## OC(c1ccc(Cl)cc1)(c1ccc(Cl)cc1)C(Cl)(Cl)Cl [Dicofol]
[2]
  chromatin binding activity (AUC) as share of the activity observed with E2: at least 10%

## C[C@]12CC[C@@H]3c4ccc(O)cc4CC[C@H]3[C@@H]1CC[C@@H]2O [E2, 17β-estradiol]
[3]; GFP-ER cells
  dsRed2skl FISH signal, increase above untreated: 3.2 fold
  maximal induced dsRed2skl FISH signal: 39,685 ± 2338 IU
[3]; iER-GFP cells
  dsRed2skl FISH signal, increase above untreated: 11.4 fold
  maximal induced dsRed2skl FISH signal: 234,008 ± 1329 IU
[3]; iGFP-ER cells
  dsRed2skl FISH signal, increase above untreated: 5.0 fold
  maximal induced dsRed2skl FISH signal: 84,564 ± 628 IU
[4]
  recruitment of SRC-3 to the PRL-array: strong recruitment

## COc1ccc(C(c2ccc(OC)cc2)C(Cl)(Cl)Cl)cc1 [Methoxychlor]
[2]
  chromatin binding activity (AUC) as share of the activity observed with E2: at least 10%

## CC(=O)[C@H]1CC[C@H]2[C@@H]3CCC4=CC(=O)CC[C@]4(C)[C@H]3CC[C@]12C [Progesterone]
[1]
  activity in yeast-based estrogenic assays: (anti-)estrogenic activity

## O=S1OCC2C(CO1)C1(Cl)C(Cl)=C(Cl)C2(Cl)C1(Cl)Cl (centres unmarked) [endosulfan]
[2]
  chromatin binding activity (AUC) as share of the activity observed with E2: at least 10%

## CCOP(=S)(OCC)SCSP(=S)(OCC)OCC [ethion]
[2]
  chromatin binding activity (AUC) as share of the activity observed with E2: at least 10%

## Clc1ccc(C(c2ccccc2Cl)C(Cl)(Cl)Cl)cc1 (centres unmarked) [o,p'-DDT]
[2]
  chromatin binding activity (AUC) as share of the activity observed with E2: at least 10%
